In ChEMBL document CHEMBL2057163, “Pyridofuran substituted pyrimidine derivatives as HCV replication (replicase) inhibitors” (Bioorg Med Chem Lett, 2012):
pEC50: −log10 of the molar value.

How the values were obtained:
[1] = Half life in rat at 10 mg/kg, po; type: ADME, organism-based; set-up: dose 10 mg/kg, route oral; details: in vivo
[2] = AUC (0 to 6 hrs) in rat at 10 mg/kg, po; type: ADME, organism-based; set-up: time < 6 hr, dose 10 mg/kg, route oral; details: plasma
[3] = Clearance in dog at 3 mg/kg, po; type: ADME, organism-based, Canis lupus familiaris; set-up: dose 3 mg/kg, route oral; details: in vivo
[4] = Oral bioavailability in dog at 3 mg/kg; type: ADME, organism-based, Canis lupus familiaris; details: in vivo
[5] = Clearance in rat at 10 mg/kg, po; type: ADME, organism-based; set-up: dose 10 mg/kg, route oral; details: in vivo
[6] = AUC in dog at 3 mg/kg, po; type: ADME, organism-based, Canis lupus familiaris; set-up: dose 3 mg/kg, route oral; details: plasma
[7] = Half life in monkey at 3 mg/kg, po; type: ADME, organism-based, Macaca mulatta; set-up: dose 3 mg/kg, route oral; details: rhesus monkey, in vivo
[8] = system: Liver; test: Drug uptake in rat liver assessed per gram of tissue at 10 mg/kg, po measured at 6 hrs; type: ADME, organism-based; set-up: dose 10 mg/kg, route oral; details: in vivo
[9] = AUC in monkey at 3 mg/kg, po; type: ADME, organism-based, Macaca mulatta; set-up: dose 3 mg/kg, route oral; details: rhesus monkey, plasma
[10] = Oral bioavailability in monkey at 3 mg/kg; type: ADME, organism-based, Macaca mulatta; details: rhesus monkey, in vivo
[11] = Half life in dog at 3 mg/kg, po; type: ADME, organism-based, Canis lupus familiaris; set-up: dose 3 mg/kg, route oral; details: in vivo
[12] = Clearance in monkey at 3 mg/kg, po; type: ADME, organism-based, Macaca mulatta; set-up: dose 3 mg/kg, route oral; details: rhesus monkey, in vivo
[13] = Cytotoxicity against human hepatoma cells assessed as inhibition of [14C]thymidine incorporation after 3 days by scintillation proximity assay; type: cell-based
[14] = Oral bioavailability in rat at 10 mg/kg; type: ADME, organism-based; details: in vivo
[15] = Selectivity ratio of CC50 for human hepatoma cells by MTS assay to EC50 for Hepatitis C virus 1b con1; type: ADME; details: read-out: Ratio CC50/EC50
[16] = system: Hepatitis C virus; test: Antiviral activity against Hepatitis C virus 1b con1 infected in human hepatoma cells assessed as decrease in replicon RNA level after 3 days by RT-PCR analysis; type: functional, organism-based, Hepacivirus hominis; details: Con1, 72 h
[17] = Cytotoxicity against human hepatoma cells after 3 days by MTS assay; type: cell-based
[18] = Cytotoxicity against human hepatoma cells assessed as decrease in GAPDH RNA level after 3 days by RT-PCR analysis; type: cell-based

| SMILES | half-life [1] | AUC(0-t) at 6 h [2] | CL/F [3] | bioavailability [4] | CL/F [5] | AUC [6] | half-life [7] | liver concentration [8] | AUC [9] | bioavailability [10] | half-life [11] | CL/F [12] | CC50 at 72 h [13] | bioavailability [14] | selectivity ratio [15] | pEC50 [16] | CC50 at 72 h [17] | CC50 at 72 h [18] |
| --- | --- | --- | --- | --- | --- | --- | --- | --- | --- | --- | --- | --- | --- | --- | --- | --- | --- | --- |
| CCc1cc2cc(-c3c(C)nc(NCC(F)(F)F)nc3N[C@@H]3C[C@H](CO)[C@@H](O)[C@H]3O)oc2cn1.Cl | 4.2 h | 5.3 µM·h | 13 mL/min/kg | 83% | 27 mL/min/kg | 6.4 µM·h | 7 h | 1730 ng/g | 5.2 µM·h | 69% | 2.1 h | 15 mL/min/kg | 4 µM | 39% | – | – | – | – |
| CNc1nc(Cl)c(-c2cc3cc(OC)nc(C)c3o2)c(N[C@@H]2C[C@H](CO)[C@@H](O)[C@H]2O)n1 | – | – | – | – | – | – | – | – | – | – | – | – | – | – | > 1000 | 7.70 | 25 µM | > 25 µM |
| CCOc1cc2cc(-c3c(C)nc(NCC4CC4)nc3N[C@@H]3C[C@H](CO)[C@@H](O)[C@H]3O)oc2c(C)n1.Cl | 3.3 h | 45.5 µM·h | 9.5 mL/min/kg | 15% | 8 mL/min/kg | 1.6 µM·h | 2.8 h | 10200 ng/g | 10.2 µM·h | 100% | 2.1 h | 16 mL/min/kg | 5 µM | 97% | – | – | – | – |
